# Values quoted from earlier work as cited in paper PMC3945118 (Journal of molecular neuroscience : MN, 2013).
# Test system: rotarod performance
# Conditions: test not specified; no reference given
compound,measurement,value
CCCC(CCC)C(=O)O [valproic acid],Therapeutic Index (TI) of known anticonvulsant,~1
